From patent US20240400572A1, “COMPOUNDS AND METHODS FOR TREATING CANCERS THAT ARE MGMT DEFICIENT REGARDLESS OF MMR STATUS” (Yale University, priority 2021, published 2024)
“Also recorded” adds a separate entry of the source. Like-named read-outs stand apart in the source and are kept apart here.

Tests used:
[1] = system: four isogenic LN229 glioblastoma cell lines (MGMT+/−, MMR+/−); assay type: cell-based; settings: for cytotoxicity and selectivity in the four isogenic cell lines (in words): LN229 MGMT+/−, MMR+/− cells; for therapeutic index: IC50 in MGMT proficient and MMR proficient cells divided by IC50 in MGMT deficient and MMR deficient cells (FIG. 8)
Protocol: Short-term Cell Viability Assay. Cells were seeded in 96-well plates at 1000 or 2000 cells/well and allowed to adhere at 23° C. for 60 min and then incubated overnight at 37° C. Cells were treated with indicated concentrations of compounds in triplicate for 4-6 days prior to fixation with 3.7% paraformaldehyde and nuclear staining with 1 μg/mL Hoechst 33342 dye. Cells were imaged on a Cytation 3 imaging reader (BioTek) and quantified using CellProfiler software.
Statistical analysis. Statistical analysis was performed using GraphPad Prism software. Data are presented as mean or median±SD or SEM as indicated. For in vitro short-term growth delay experiments, IC50 values were determined from the nonlinear regression equation, [inhibitor] vs normalized response with variable slope. For micronuclei assays, comparisons were made with one-way ANOVA and Sidak correction for multiple comparisons. For xenograft growth delay experiments, comparisons were made with Mann-Whitney test (for comparison of 2 groups) or Kruskal-Wallis test with FDR-adjusted p-values with Q set to 5% (for comparison of ≥3 groups). For xenograft survival analysis, Kaplan-Meier analysis was used to evaluate survival rate based on death or removal from study when body weight loss exceeded 20% of initial body weight
We synthesized the imidazotetrazine 4a (KL-50) and the triazene 4b (KL-85), as vehicles to deliver 2-fluoroethyl diazonium (4c), and a series of related agents to probe structure-activity relationships in tissue culture (FIG. Z1, D and F). The 2-fluoropropyl- and 3-fluoropropyl-triazenes (10 and 11, respectively) were prepared by diazotization of 4-aminoimdazole-5-carboxamide, followed by the addition of the respective amine. All other triazenes were prepared according to literature procedures. We evaluated the cytotoxicity of our compounds in short-term cell viability assays against four isogenic LN229 glioblastoma cell lines engineered to be proficient or deficient in MGMT and/or MMR activity, using short hairpin RNAs (shRNAs) targeting MSH2 (referred to as MGMT+/−, MMR+/− cells hereafter; FIG. ZS2A). This approach allowed us to rapidly and rigorously interrogate the relationship between MGMT and MMR status and compound activity.
The compounds 10a through 10l and TMZ were tested in the short-term cell viability assay.

[2] = system: LN229 WT and LN229-MSH2^− flank tumors; assay: Xenograft Experiments (FIG. 11); assay type: in vivo, mouse; settings: 5 mg/kg gavage, Mondays, Wednesdays and Fridays for 3 weeks
Protocol: Xenograft Experiments (FIG. 11): All animal studies were approved by the Institutional Animal Use and Care Committee and performed in accordance with the Guide for the Care and Use of Laboratory Animals. LN229 WT and LN229-MSH2^− cell lines were maintained in DMEM media supplemented with 10% fetal bovine serum. Three-four-week-old female athymic nude Foxnnu mice were obtained from Envigo and each mouse was inoculated subcutaneously with tumor cells (4.5-5×10^6) in 0.1 ml of PBS with Matrigel (1:1). Wild type cells were injected on the right flank and mutant cells were injected on the left flank. The tumors were then grown to a mean size of approximately 50-100 mm3 and the mice were then split into groups and treated as detailed in FIG. 7. Gavage doses of 5 mg/kg of KL-50 or TMZ were prepared by diluting stocks in DMSO with 10% cyclodextrin. Compound was administered each day of dosing at a volume of 100 μL/mouse. Mice were treated for 3 weeks with dosing on Mondays, Wednesdays and Fridays. Tumors were measured 3 times a week during treatment and during the washout period of 2 weeks. Xenograft tumors were measured by calipers and volume was calculated using the equation for ellipsoid volume: Volume=0.523×(length)×(width)^2. Statistical Analysis: Analysis of variance (ANOVA) was used to test for significant differences between groups. Post-hoc Bonferroni multiple comparison test analysis was used to determine significant differences among means. All statistical analysis was accomplished using Graph Pad Prism 8.2.0 software.

[3] = system: LN229 MGMT+/−, MMR+/− cells; assay: Micronuclei analysis; assay type: cell-based, human; settings: 20 μM, 48 h
Text: Micronuclei Analysis. An automated image analysis pipeline was developed by YCMD using InCell Analyzer software to quantify micronuclei formation. Nuclei and micronuclei were segmented based on Hoechst nucleic acid dye staining channel. A perinuclear margin was applied around the nuclei to approximate the extent of the cytoplasm and identify micronuclei associated with the parent nucleus. Cells with nuclei associated with at least 1 micronucleus were considered positive.

Row | SMILES | cytotoxicity and selectivity in the four isogenic cell lines (in words) ([1]; listed as N-methyl KL50) | activity in MGMT−/MMR (MSH2)+ tumors (in words) [2] | activity in MGMT−/MMR (MSH2)− tumors (in words) [2] | therapeutic index [1] | selectivity for MGMT-deficient cells ([1]; LN229 MGMT+ versus MGMT− cells) [fold] | cytotoxicity and selectivity in the four isogenic cell lines (in words) [1] | cytotoxicity and selectivity in the four isogenic cell lines (in words) ([1]; listed as 4a) | micronuclei formation (in words) [3]
1 | CNC(=O)c1ncn2c(=O)n(CCF)nnc12 [Compound I-1, 3-(2-fluoroethyl)-N-methyl-4-oxo-3H,4H-imidazo[4,3-d][1,2,3,5]tetrazine-8-carboxamide] | comparable to those for KL50 itself; also recorded: preferable toxicity for MGMT− cells compared to MGMT^+ cells, regardless of MMR status |  |  |  |  |  |  | 
2 | NC(=O)c1ncn2c(=O)n(CCF)nnc12 [KL-50, 3-(2-fluoroethyl)-4-oxo-3H,4H-imidazo[4,3-d][1,2,3,5]tetrazine-8-carboxamide] |  | comparable activity to TMZ | surprisingly effective | 26.64 | ~25 | preferable toxicity for MGMT− cells compared to MGMT^+ cells, regardless of MMR status | mirrored that of 4b | significant increase in micronuclei was observed at 48 h
3 | Cn1nnc2c(C(N)=O)ncn2c1=O [TMZ, temozolomide, reference compound] |  |  | ineffective | less than one |  |  |  | smaller increases in G1-phase foci and micronuclei formation at 48 h in MGMT−/MMR+ cells; also recorded: did not observe foci induction or micronuclei formation in MGMT−/MMR− cells
